Species on record: Cavia porcellus
Assay: Duration of action at which functional detrusor muscle contraction strength was measured using guinea pig model of cystometrogram
Set-up: species or system Muscle tissue

Structure (SMILES)	Duration [min]
CCN(C)CC#CCCC(=O)C(O)(c1ccccc1)c1ccccc1	69
CC(C)N(C)CC#CCCC(=O)C(O)(c1ccccc1)C1CCCCC1 (stereo not drawn)	41
CN(C)CC#CCCC(=O)C(O)(c1ccccc1)C1(C)CC1 (stereo not drawn)	80
CCNCC#CCCC(=O)C(O)(c1ccccc1)C1CCCCC1 (stereo not drawn)	85
CCNCC#CCCC(=O)C(O)(c1ccccc1)C1CC1 (stereo not drawn)	103
CCN(CC)CC#CCCC(=O)C(O)(c1ccccc1)C1CC1 (stereo not drawn)	80
CCNCC#CCCC(=O)C(O)(c1ccccc1)C1CCC1 (stereo not drawn)	103
CCN(C)CC#CCCC(=O)C(O)(c1ccccc1)C1CCCCC1 (stereo not drawn)	39
CCN(CC)CC#CCCC(O)C(O)(c1ccccc1)C1CCCCC1 (stereo not drawn)	123
CCNCC#CCCC(=O)C(O)(c1ccc(F)cc1)C1CCCCC1 (stereo not drawn)	116
CCN(C)CC#CCCC(=O)C(O)(c1ccccc1)C1CC1 (stereo not drawn)	127
CN(C)CC#CCCC(=O)C(O)(c1ccc(F)cc1)C1CCCCC1 (stereo not drawn)	104
CCN(C)CC#CCCC(=O)C(O)(c1ccccc1)C1CCC1 (stereo not drawn)	168
CCN(CC#CCCC(=O)C(O)(c1ccccc1)C1CCCCC1)C(C)C (stereo not drawn)	23
CN(C)CC#CCCC(=O)C(O)(c1ccccc1)C1CCCCC1 (stereo not drawn)	126
CN(C)CC#CCCC(=O)C(O)(c1ccccc1)C1CCCC1 (stereo not drawn)	98
CCNCC#CCCC(=O)C(O)(c1ccccc1)c1ccccc1	54

Structure (SMILES)	Duration [min]
CNCC#CCCC(=O)C(O)(c1ccccc1)C1CCCCC1 (stereo not drawn)	48
CCCCN(CC#CCCC(=O)C(O)(c1ccccc1)C1CCCCC1)CCC (stereo not drawn)	74
CN(C)CCCCCC(=O)C(O)(c1ccccc1)C1CCCCC1 (stereo not drawn)	294
CN(C)CC#CCCC(=O)C(O)(c1ccccc1)C1CC2CCC1C2 (stereo not drawn)	242
CC(C)C(O)(C(=O)CCC#CCN(C)C)c1ccccc1 (stereo not drawn)	80
CN(C)CC#CCCC(=O)[C@@](O)(c1ccccc1)C1CCCCC1	88
CN(C)CC#CCCC(=O)[C@](O)(c1ccccc1)C1CCCCC1	257
CC(C)N(CC#CCCC(=O)C(O)(c1ccccc1)C1CCCCC1)C(C)C (stereo not drawn)	32
CC(CC#CCN(C)C)C(=O)C(O)(c1ccccc1)C1CCCCC1 (stereo not drawn)	39
CN(C)CC#CCCC(=O)C(O)(c1ccccc1)c1ccccc1	45
CCNCC#CCCC(=O)C(O)(c1ccccc1)C1CC2CCC1C2 (stereo not drawn)	165
CN(C)CC#CCCC(=O)C(O)(c1ccccc1)C1CC1 (stereo not drawn)	89
CC(C)NCC#CCCC(=O)C(O)(c1ccccc1)C1CCCCC1 (stereo not drawn)	35
CCN(CC)CC#CCCC(=O)C(O)(c1ccccc1)C1CCCCC1 (stereo not drawn)	30
CN(C)CC#CCCC(=O)C(O)(c1ccccc1)C1CCC1 (single isomer, unassigned; (+))	88
CN(C)CC#CCCC(=O)C(O)(c1ccccc1)C1CCC1 (stereo in doubt; 14b)	116
CN(C)CC#CCCC(=O)C(O)(c1ccccc1)C1CCC1 (stereo in doubt; (-)-14b)	40

System: Cavia porcellus
Assay: Effect on in vivo functional detrusor muscle contraction strength using guinea pig model of cystometrogram
Set-up: species or system Muscle tissue

Structure (SMILES)	Potency
CCN(C)CC#CCCC(=O)C(O)(c1ccccc1)c1ccccc1	0.9
CC(C)N(C)CC#CCCC(=O)C(O)(c1ccccc1)C1CCCCC1 (stereo not drawn)	4.2
CN(C)CC#CCCC(=O)C(O)(c1ccccc1)C1(C)CC1 (stereo not drawn)	0.28
CC(C)CC(O)(C(=O)CCC#CCN(C)C)c1ccccc1 (stereo not drawn)	4.1
CCNCC#CCCC(=O)C(O)(c1ccccc1)C1CCCCC1 (stereo not drawn)	0.98
CCNCC#CCCC(=O)C(O)(c1ccccc1)C1CC1 (stereo not drawn)	1.1
CN(C)CC#CCCC(=O)C(O)(C1CCCCC1)C1CCCCC1	15.3
CCN(CC)CC#CCCC(=O)C(O)(c1ccccc1)C1CC1 (stereo not drawn)	0.98
CCNCC#CCCC(=O)C(O)(c1ccccc1)C1CCC1 (stereo not drawn)	1.1
CCN(C)CC#CCCC(=O)C(O)(c1ccccc1)C1CCCCC1 (stereo not drawn)	0.45
CCN(CC)CC#CCCC(O)C(O)(c1ccccc1)C1CCCCC1 (stereo not drawn)	6.3
CCNCC#CCCC(=O)C(O)(c1ccc(F)cc1)C1CCCCC1 (stereo not drawn)	1.8
CCN(C)CC#CCCC(=O)C(O)(c1ccccc1)C1CC1 (stereo not drawn)	1.3
CN(C)CC#CCCC(=O)C(O)(c1ccc(F)cc1)C1CCCCC1 (stereo not drawn)	0.9
CCN(CC)CC#CCCC(=O)C(O)(c1ccccc1)C1CCCC1 (stereo not drawn)	3.1
CCN(C)CC#CCCC(=O)C(O)(c1ccccc1)C1CCC1 (stereo not drawn)	0.86
CCN(CC#CCCC(=O)C(O)(c1ccccc1)C1CCCCC1)C(C)C (stereo not drawn)	3.3
CN(C)CC#CCCC(=O)C(O)(c1ccccc1)C1CCCCC1 (stereo not drawn)	0.48
CN(C)CC#CCCC(=O)C(O)(c1ccccc1)C1CCCC1 (stereo not drawn)	0.33
CCNCC#CCCC(=O)C(O)(c1ccccc1)c1ccccc1	1.5

Structure (SMILES)	Potency
CNCC#CCCC(=O)C(O)(c1ccccc1)C1CCCCC1 (stereo not drawn)	0.48
CN(C)CC#CCCC(=O)C(O)(c1ccccc1)C12CCC(CC1)CC2 (stereo not drawn)	4.4
CCCCN(CC#CCCC(=O)C(O)(c1ccccc1)C1CCCCC1)CCC (stereo not drawn)	2.6
CN(C)CCCCCC(=O)C(O)(c1ccccc1)C1CCCCC1 (stereo not drawn)	1.27
CN(C)CC#CCCC(=O)C(O)(c1ccccc1)C1CC2CCC1C2 (stereo not drawn)	0.9
CN(C)CC#CC(CO)C(O)(c1ccccc1)C1CCCCC1 (stereo not drawn)	7.38
CN(CC#CCCC(=O)C(O)(c1ccccc1)C1CCCCC1)CCc1ccccc1 (stereo not drawn)	>10
CC(C)C(O)(C(=O)CCC#CCN(C)C)c1ccccc1 (stereo not drawn)	0.48
CN(C)CC#CCCC(=O)[C@@](O)(c1ccccc1)C1CCCCC1	3.6
CN(C)CC#CCCC(=O)[C@](O)(c1ccccc1)C1CCCCC1	0.19
CC(C)N(CC#CCCC(=O)C(O)(c1ccccc1)C1CCCCC1)C(C)C (stereo not drawn)	5.3
CC(CC#CCN(C)C)C(=O)C(O)(c1ccccc1)C1CCCCC1 (stereo not drawn)	2.1
CN(C)CC#CCCC(=O)C(O)(c1ccccc1)c1ccccc1	0.59
CCNCC#CCCC(=O)C(O)(c1ccccc1)C1CC2CCC1C2 (stereo not drawn)	1.1
CN(C)CC#CCCC(=O)C(O)(c1ccccc1)C1CC1 (stereo not drawn)	0.48
CC(C)NCC#CCCC(=O)C(O)(c1ccccc1)C1CCCCC1 (stereo not drawn)	2.1
CCN(CC)CC#CCCC(=O)C(O)(c1ccccc1)C1CCCCC1 (stereo not drawn)	2.8
CN(C)CC#CCCC(=O)C(O)(c1ccccc1)C1CCC1 (single isomer, unassigned; (+))	0.06
CN(C)CC#CCCC(=O)C(O)(c1ccccc1)C1CCC1 (stereo in doubt; 14b)	0.12
CN(C)CC#CCCC(=O)C(O)(c1ccccc1)C1CCC1 (stereo in doubt; (-)-14b)	2.5

Species on record: Cavia porcellus
Assay: Antimuscarinic effect determined by comparing ability to inhibit carbachol-induced guinea pig detrusor muscle contractions
Type: functional

Structure (SMILES)	Kb [nM]
CCN(C)CC#CCCC(=O)C(O)(c1ccccc1)c1ccccc1	75.4
CC(C)N(C)CC#CCCC(=O)C(O)(c1ccccc1)C1CCCCC1 (stereo not drawn)	267
CN(C)CC#CCCC(=O)C(O)(c1ccccc1)C1(C)CC1 (stereo not drawn)	24
CC(C)CC(O)(C(=O)CCC#CCN(C)C)c1ccccc1 (stereo not drawn)	30.5
O=C(CCC#CCNCc1ccccc1)C(O)(c1ccccc1)C1CCCCC1 (stereo not drawn)	4200
CCNCC#CCCC(=O)C(O)(c1ccccc1)C1CCCCC1 (stereo not drawn)	232
CCNCC#CCCC(=O)C(O)(c1ccccc1)C1CC1 (stereo not drawn)	224
CN(C)CC#CCCC(=O)C(O)(C1CCCCC1)C1CCCCC1	169
CCN(CC)CC#CCCC(=O)C(O)(c1ccccc1)C1CC1 (stereo not drawn)	58
CCNCC#CCCC(=O)C(O)(c1ccccc1)C1CCC1 (stereo not drawn)	224
CCN(C)CC#CCCC(=O)C(O)(c1ccccc1)C1CCCCC1 (stereo not drawn)	37
CCN(CC)CC#CCCC(O)C(O)(c1ccccc1)C1CCCCC1 (stereo not drawn)	1600
CCN(CC)CC#CCCC(=O)C(C)(O)c1ccccc1 (stereo not drawn)	5200
CCNCC#CCCC(=O)C(O)(c1ccc(F)cc1)C1CCCCC1 (stereo not drawn)	504
CCN(C)CC#CCCC(=O)C(O)(c1ccccc1)C1CC1 (stereo not drawn)	241
CN(C)CC#CCCC(=O)C(O)(c1ccc(F)cc1)C1CCCCC1 (stereo not drawn)	67.7
NCC#CCCC(=O)C(O)(c1ccccc1)C1CCCCC1 (stereo not drawn)	2100
CCN(CC)CC#CCCC(=O)C(O)(c1ccccc1)C1CCCC1 (stereo not drawn)	21
CCN(C)CC#CCCC(=O)C(O)(c1ccccc1)C1CCC1 (stereo not drawn)	7.5
CCN(CC#CCCC(=O)C(O)(c1ccccc1)C1CCCCC1)C(C)C (stereo not drawn)	217
CN(C)CC#CCCC(=O)C(O)(c1ccccc1)C1CCCCC1 (stereo not drawn)	38.7
CN(C)CC#CCCC(=O)C(O[Si](C)(C)C)(c1ccccc1)C1CCCCC1 (stereo not drawn)	>5000
CCCCN(CC#CCCC(=O)C(O)(c1ccccc1)C1CCCCC1)CCCC (stereo not drawn)	>5000
CN(C)CC#CCCC(=O)C(O)(c1ccccc1)C1CCCC1 (stereo not drawn)	2
CCNCC#CCCC(=O)C(O)(c1ccccc1)c1ccccc1	200

Structure (SMILES)	Kb [nM]
CNCC#CCCC(=O)C(O)(c1ccccc1)C1CCCCC1 (stereo not drawn)	71.2
CN(C)CC#CCCC(=O)C(O)(c1ccccc1)C12CCC(CC1)CC2 (stereo not drawn)	115
CN(C)Cc1ccc(CCC(=O)C(O)(c2ccccc2)C2CCCCC2)cc1 (stereo not drawn)	1900
CCCCN(CC#CCCC(=O)C(O)(c1ccccc1)C1CCCCC1)CCC (stereo not drawn)	142
CN(C)CCCCCC(=O)C(O)(c1ccccc1)C1CCCCC1 (stereo not drawn)	43
CN(C)CC#CCCC(=O)C(O)(c1ccccc1)C1CC2CCC1C2 (stereo not drawn)	90
CN(C)CC#CC(CO)C(O)(c1ccccc1)C1CCCCC1 (stereo not drawn)	99.7
CN(CC#CCCC(=O)C(O)(c1ccccc1)C1CCCCC1)CCc1ccccc1 (stereo not drawn)	551
CN(C)CC#CCCC(=O)C(O)(c1ccccc1)C12C[C@H]3C[C@@H](C1)C[C@@H](C2)C3 (stereo partly drawn)	>5000
CC(C)C(O)(C(=O)CCC#CCN(C)C)c1ccccc1 (stereo not drawn)	18.3
CN(C)CC#CCCC(=O)[C@@](O)(c1ccccc1)C1CCCCC1	209
CN(C)CC#CCCC(=O)[C@](O)(c1ccccc1)C1CCCCC1	17
CN(CC#CCCC(=O)C(O)(c1ccccc1)C1CCCCC1)CCO (stereo not drawn)	257
CC(C)N(CC#CCCC(=O)C(O)(c1ccccc1)C1CCCCC1)C(C)C (stereo not drawn)	260
CCN(CC)CC#CCCC(=O)C(O)(c1ccccc1)c1ccccc1	70.7
CC(CC#CCN(C)C)C(=O)C(O)(c1ccccc1)C1CCCCC1 (stereo not drawn)	163
CN(C)CC#CCCC(=O)C(O)(c1ccccc1)c1ccccc1	70.1
CCNCC#CCCC(=O)C(O)(c1ccccc1)C1CC2CCC1C2 (stereo not drawn)	65
CN(C)CC#CCCC(=O)C(O)(c1ccccc1)C1CC1 (stereo not drawn)	35
CC(C)NCC#CCCC(=O)C(O)(c1ccccc1)C1CCCCC1 (stereo not drawn)	292
CCN(CC)CC#CCCC(=O)C(O)(c1ccccc1)C1CCCCC1 (stereo not drawn)	175
CN(C)CC#CCCC(=O)C(O)(c1ccccc1)C1CCC1 (single isomer, unassigned; (+))	6.2
CN(C)CC#CCCC(=O)C(O)(c1ccccc1)C1CCC1 (stereo in doubt; 14b)	4.9
CN(C)CC#CCCC(=O)C(O)(c1ccccc1)C1CCC1 (stereo in doubt; (-)-14b)	149

From ChEMBL document CHEMBL1125773, “Analogues of oxybutynin. Synthesis and antimuscarinic and bladder activity of some substituted 7-amino-1-hydroxy-5-heptyn-2-ones and related compounds” (1991)
